In US20060253263A1, “Method to optimize drug selection, dosing and evaluation and to help predict therapeutic response and toxicity from immunosuppressant therapy” (priority 2005, published 2006):
Like-named read-outs stand apart in the source and are kept apart here.

Assays:
[1] = cited from earlier work
[2] = system: advanced colorectal cancers; details: 5-FU alone; cited from earlier work
[3] = biological target: T1, dihydropyrimidine dehydrogenase (DPD) (Homo sapiens, UniProt Q12882); details: cited from earlier work
T1 construct: host or cells: endogenous enzyme of the body (in vivo drug catabolism)
T1 sequence (Q12882 4-1025): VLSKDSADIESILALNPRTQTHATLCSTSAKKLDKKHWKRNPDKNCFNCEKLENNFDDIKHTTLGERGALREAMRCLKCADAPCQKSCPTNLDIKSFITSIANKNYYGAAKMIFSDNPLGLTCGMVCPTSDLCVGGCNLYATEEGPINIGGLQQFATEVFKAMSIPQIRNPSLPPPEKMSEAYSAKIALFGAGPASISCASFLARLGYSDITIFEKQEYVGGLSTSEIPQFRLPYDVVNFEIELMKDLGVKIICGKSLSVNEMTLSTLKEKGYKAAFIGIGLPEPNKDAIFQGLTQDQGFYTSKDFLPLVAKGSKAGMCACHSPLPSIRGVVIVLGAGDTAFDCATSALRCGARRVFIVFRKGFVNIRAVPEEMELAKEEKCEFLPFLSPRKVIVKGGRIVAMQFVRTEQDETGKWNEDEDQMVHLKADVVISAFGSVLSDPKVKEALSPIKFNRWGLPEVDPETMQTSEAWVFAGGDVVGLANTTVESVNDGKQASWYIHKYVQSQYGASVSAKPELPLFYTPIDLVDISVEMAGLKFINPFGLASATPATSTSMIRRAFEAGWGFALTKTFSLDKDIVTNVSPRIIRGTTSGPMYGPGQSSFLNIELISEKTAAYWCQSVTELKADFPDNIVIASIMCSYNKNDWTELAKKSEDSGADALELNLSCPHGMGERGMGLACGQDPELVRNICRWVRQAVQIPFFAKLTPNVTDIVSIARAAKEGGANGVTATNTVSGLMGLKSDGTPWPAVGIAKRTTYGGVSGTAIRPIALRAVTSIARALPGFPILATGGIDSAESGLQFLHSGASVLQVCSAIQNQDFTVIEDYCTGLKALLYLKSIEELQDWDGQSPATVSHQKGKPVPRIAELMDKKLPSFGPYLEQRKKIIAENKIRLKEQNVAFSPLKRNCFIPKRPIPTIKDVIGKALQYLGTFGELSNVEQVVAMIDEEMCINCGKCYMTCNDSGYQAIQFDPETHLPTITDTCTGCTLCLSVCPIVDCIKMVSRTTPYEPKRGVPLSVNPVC

[4] = system: patients with proliferative LN; details: 59 patients, cited from earlier work; for patients who died during maintenance therapy: followed for as long as 30 months
[5] = human, in vivo
[6] = system: patients with class IV LN; details: cited from earlier work; for renal remission achieved: then AZA maintenance
[7] = system: patients with class IV LN; details: cited from earlier work
[8] = system: patients with severe LN; details: cited from earlier work; for combined end point, complete plus partial remission (number of patients): P=0.009; for complete remission (number of patients) / complete remission (percent of patients) / partial remission (number of patients): induction therapy of LN; for complete remission (number of patients) / complete remission (percent of patients): 140 patients randomized
[9] = system: rheumatoid arthritis patients; details: cited from earlier work
[10] = system: rheumatoid arthritis patients; details: five trials, 300 patients, cited from earlier work

O=c1[nH]cc(F)c(=O)[nH]1 [5-FU, 5-Fluorouracil]
dose excreted unchanged in the urine ([1]; normal individuals): 10% | dose excreted unchanged in the urine ([1]; people genetically deficient in DPD): 90% | partial remissions [2]: 10-30% | fraction of a dose transformed by DPD to the inactive dihydrofluorouracil form ([3]; in vivo): more than 80% | fraction of an injected dose rapidly inactivated by DPD ([3]; injected dose): More than 85%

Cn1cnc([N+](=O)[O-])c1Sc1ncnc2nc[nH]c12 [AZA, azathioprine]
patients who developed chronic renal failure during maintenance therapy [4]: one | 6-TG level at maintained therapeutic response [5]: 187 pmol | therapeutic range of 6-TG [5]: 140 to 249 pmol

O=P1(N(CCCl)CCCl)NCCCO1 (stereo not shown) [CYC, Cyclophosphamide]
renal remission achieved ([6]; high-dose group (six monthly pulses followed by two quarterly pulses IV)): 54% | subsequent renal flares ([6]; high-dose group): 29% | renal remission achieved ([6]; low-dose group (500 mg biweekly x six pulses IV)): 71% | subsequent renal flares ([6]; low-dose group): 27% | renal survival ([7]; black patients, at year 5): 71% | renal survival rate ([7]; nonblack patients, through 5 years of follow-up): 95% | combined end point, complete plus partial remission (number of patients) [8]: 21 patients | deaths ([8]; all in patients randomized to IV CYC): Three | complete remission (number of patients) [8]: four | complete remission (percent of patients) [8]: 6% | partial remission (number of patients) [8]: 17 patients | patients who died during maintenance therapy [4]: four | patients who developed chronic renal failure during maintenance therapy [4]: three

COc1c(C)c2c(c(O)c1C/C=C(\C)CCC(=O)OCCN1CCOCC1)C(=O)OC2 [MMF, Mycophenolate mofetil]
combined end point, complete plus partial remission (number of patients) [8]: 37 patients | complete remission (number of patients) [8]: 16 patients | complete remission (percent of patients) [8]: 23% | partial remission (number of patients) [8]: Twenty-one | patients who died during maintenance therapy [4]: one | patients who developed chronic renal failure during maintenance therapy [4]: one

CN(Cc1cnc2nc(N)nc(N)c2n1)c1ccc(C(=O)N[C@@H](CCC(=O)O)C(=O)O)cc1 [MTX, methotrexate]
fraction of rheumatoid arthritis patients showing major improvement ([9]; human, in vivo): one-third | patients with mild adverse effects ([9]; rheumatoid arthritis patients): up to 60% | more likely than placebo to discontinue treatment due to adverse reactions [10]: three | people who withdrew due to adverse effects ([10]; placebo group seven percent): twenty-two
